How the values were obtained:
[1] = test system: harmful plants such as Sinapis alba, Echinochloa crus-galli, Lolium multiflorum, Stellaria media, Cyperus iria, Amaranthus retroflexus, Setaria viridis, Avena …; test: Post-emergence effect on weeds (greenhouse pot test); type: in vivo; conditions: application rate of 2 kg or less of active ingredient per hectare; sprayed in the three-leaf stage; scored visually after approx. 3 to 4 weeks vs untreated controls
Protocol: Seeds or rhizome pieces of monocotyledonous and dicotyledonous weeds were placed in sandy loam in plastic pots, covered with soil and grown in the greenhouse under good growth conditions. Three weeks after sowing, the test plants were treated in the three-leaf stage. Various dosages of the compounds according to the invention, which were formulated as wettable powders or emulsion concentrates, were sprayed to the green plant parts at an application rate of 600 to 800 l of water per ha (converted). After the test plants have been left to stand in the greenhouse for approx. 3 to 4 weeks under optimal growth conditions, the effect of the preparations was scored visually by comparison with untreated controls. Compound nos.

[2] = test system: plantation crops such as oil palm, coconut palm, India-rubber tree, citrus, pineapples, cotton, coffee, cocoa and vines; test: Weed control in plantation crops (field trials, crop tolerance); type: in vivo; conditions: natural weed infestation, various dosages, even at high rates of active substance
Protocol: In further field trials plantation crops were grown under conditions of natural weed infestation and sprayed with various dosages of the substances of formula (I) according to the invention.

[3] = test system: harmful plants such as Stellaria media, Lolium multiforum, Amaranthus retroflexus, Sinapis alba, Avena sativa and Setaria viridis; test: Pre-emergence effect on weeds (greenhouse pot test); type: in vivo; conditions: application rate of 0.5 kg or less of active ingredient per hectare; applied to soil cover; scored visually after 3 to 4 weeks vs untreated controls
Text: Seeds or rhizome pieces of monocotyledonous and dicotyledonous weed plants were placed in sandy loam in plastic pots and covered with soil. The compounds according to the invention, which were formulated in the form of wettable powders or emulsion concentrates, were then applied to the surface of the soil cover as aqueous suspension or emulsion at various dosages with an application rate of 600 to 800 l of water per ha (converted).

Cc1ccc2c(c1)[C@H](Nc1nc(N)nc(C(F)F)n1)CCC2 [Compound 2.2]
herbicidal post-emergence activity against harmful plants [1]: very good herbicidal post-emergence activity | damage to plantation crops (visual assessment) [2]: unharmed | pre-emergence control of harmful plants [3]: very good pre-emergence control

C[C@H]1Cc2ccc(Br)cc2[C@@H]1Nc1nc(N)nc(C(F)F)n1 [Compound 3.82]
herbicidal post-emergence activity against harmful plants [1]: very good herbicidal post-emergence activity | damage to plantation crops (visual assessment) [2]: unharmed | pre-emergence control of harmful plants [3]: very good pre-emergence control

Cc1ccc2c(c1)[C@H](Nc1nc(N)nc(C(F)F)n1)[C@@H](C)C2 [Compound 3.1, 6-(difluoromethyl)-N-[(1R,2S)-2,6-dimethyl-2,3-dihydro-1H-inden-1-yl]-1,3,5-triazine-2,4-diamine]
melting point: 132 to 134 °C | herbicidal post-emergence activity against harmful plants [1]: very good herbicidal post-emergence activity | damage to plantation crops (visual assessment) [2]: unharmed | pre-emergence control of harmful plants [3]: very good pre-emergence control

Cc1cccc2c1OCCC2Nc1nc(N)nc(C(F)F)n1 (racemic) [Compound 1.205]
herbicidal post-emergence activity against harmful plants [1]: very good herbicidal post-emergence activity | damage to plantation crops (visual assessment) [2]: unharmed | pre-emergence control of harmful plants [3]: very good pre-emergence control

Cc1cc(C)c2c(c1)[C@H](Nc1nc(N)nc(C(F)F)n1)CCC2 [Compound 2.5]
herbicidal post-emergence activity against harmful plants [1]: very good herbicidal post-emergence activity | damage to plantation crops (visual assessment) [2]: unharmed | pre-emergence control of harmful plants [3]: very good pre-emergence control

Cc1ccc2c(c1)[C@H](Nc1nc(NC=O)nc(C(F)F)n1)[C@@H](C)C2 [Compound 3.118, N-[4-(difluoromethyl)-6-{[(1R,2S)-2,6-dimethyl-2,3-dihydro-1H-inden-1-yl]amino}-1,3,5-triazin-2-yl]-formamide]
melting point: 66 °C

Cc1cc(C)c2c(c1)C(Nc1nc(N)nc(C(F)F)n1)CCC2 (racemic) [Compound 1.5]
herbicidal post-emergence activity against harmful plants [1]: very good herbicidal post-emergence activity | damage to plantation crops (visual assessment) [2]: unharmed | pre-emergence control of harmful plants [3]: very good pre-emergence control

Nc1nc(N[C@@H]2CCOc3c(F)cccc32)nc(C(F)F)n1 [Compound 2.206, 6-(Difluoromethyl)-N-[(4R)-8-fluoro-3,4-dihydro-2H-chromen-4-yl]-1,3,5-triazine-2,4-diamine]
herbicidal post-emergence activity against harmful plants [1]: very good herbicidal post-emergence activity | damage to plantation crops (visual assessment) [2]: unharmed | pre-emergence control of harmful plants [3]: very good pre-emergence control

Cc1ccc2c(c1)[C@H](Nc1nc(N)nc(C(F)F)n1)CC2 [Compound 2.1]
herbicidal post-emergence activity against harmful plants [1]: very good herbicidal post-emergence activity | damage to plantation crops (visual assessment) [2]: unharmed | pre-emergence control of harmful plants [3]: very good pre-emergence control

Cc1ccc2c(c1)[C@H](Nc1nc(NC(=O)C(C)(C)C)nc(C(F)F)n1)[C@@H](C)C2 [Compound 3.112]
herbicidal post-emergence activity against harmful plants [1]: very good herbicidal post-emergence activity | damage to plantation crops (visual assessment) [2]: unharmed | pre-emergence control of harmful plants [3]: very good pre-emergence control

CCC(=O)Nc1nc(N[C@H]2c3cc(C)ccc3C[C@@H]2C)nc(C(F)F)n1 [Compound 3.109, N-(4-(difluoromethyl)-6-{[(1R,2S)-2,6-dimethyl-2,3-dihydro-1H-inden-1-yl]-amino}-1,3,5-triazin-2-yl)propanamide]
herbicidal post-emergence activity against harmful plants [1]: very good herbicidal post-emergence activity | damage to plantation crops (visual assessment) [2]: unharmed | pre-emergence control of harmful plants [3]: very good pre-emergence control

Cc1ccc2c(c1)[C@H](Nc1nc(N)nc(C(F)F)n1)CCO2 [Compound 2.3]
herbicidal post-emergence activity against harmful plants [1]: very good herbicidal post-emergence activity | damage to plantation crops (visual assessment) [2]: unharmed | pre-emergence control of harmful plants [3]: very good pre-emergence control

CC(=O)Nc1nc(N[C@H]2c3cc(C)ccc3C[C@@H]2C)nc(C(F)F)n1 [Compound 3.106]
herbicidal post-emergence activity against harmful plants [1]: very good herbicidal post-emergence activity | damage to plantation crops (visual assessment) [2]: unharmed | pre-emergence control of harmful plants [3]: very good pre-emergence control

CC[C@H]1Cc2ccc(C)cc2[C@@H]1Nc1nc(N)nc(C(F)F)n1 [Compound 3.31]
herbicidal post-emergence activity against harmful plants [1]: very good herbicidal post-emergence activity | damage to plantation crops (visual assessment) [2]: unharmed | pre-emergence control of harmful plants [3]: very good pre-emergence control

From patent US20070238617A1, “Diamino-1,3,5-triazines N-substituted with bicyclic radicals, process for their preparation, compositions thereof, and their use as herbicides and plant growth regulators” (Bayer CropScience AG, priority 2006, published 2007)
